As usually defined, the EC50 is the concentration needed to bring the measured effect to its halfway point. A lower EC50 goes with a more potent agent.

From patent US20260022096A1, “NOVEL SULFONAMIDES AND THEIR USE AS NEUROPROTECTIVE AND/OR NEURORESTORATIVE AGENTS” (GENECODE, priority 2022, published 2026) come the findings set out here.

Each structure is given as a SMILES string.

For this test, the target named is T1, GFRα1-RET (Homo sapiens, UniProt P56159).
T1 construct: expressed in transfected cells; host or cells: MG87 murine fibroblasts, stably transfected
T1 sequence (P56159 25-429 limits assumed): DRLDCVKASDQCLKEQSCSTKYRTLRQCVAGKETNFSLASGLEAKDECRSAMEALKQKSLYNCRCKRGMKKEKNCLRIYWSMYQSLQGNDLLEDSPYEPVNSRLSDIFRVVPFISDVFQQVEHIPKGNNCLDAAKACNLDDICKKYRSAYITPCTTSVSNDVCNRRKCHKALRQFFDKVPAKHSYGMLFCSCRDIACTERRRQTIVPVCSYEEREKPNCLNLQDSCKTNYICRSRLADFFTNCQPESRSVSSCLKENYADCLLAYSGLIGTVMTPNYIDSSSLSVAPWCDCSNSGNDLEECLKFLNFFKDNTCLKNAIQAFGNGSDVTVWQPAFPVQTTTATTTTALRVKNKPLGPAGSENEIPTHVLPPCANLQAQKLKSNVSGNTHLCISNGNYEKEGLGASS
The test is described as follows: Elk1 reporter-gene (luciferase) assay in cells expressing GFRα1-RET. Format: cell-based. To be noted: MG87 murine fibroblasts stably transfected with PathDetect Elk-1, GFRα1 and RET, 6 concentrations, agonist/activator activity. The procedure:
For ECso determination, a dose-response test was performed using 6 concentrations of each tested compound. Dose-response curves were fitted using the sigmoidal dose-response (variable slope) analysis in GraphPad Prism program (Graph Pad Inc) and ECso of agonist/activator activity was calculated. Dose-response experiments were all performed in duplicate, two times independently.
`O=C(c1ccc(F)cc1Cl)N1C[C@H]2CC[C@@H](C1)N2c1cc(S(=O)(=O)N2CCC(CCc3ccccc3)CC2)ccc1O` [compound 062] registered an EC50 of under 1 µM. For the molecule `O=C(c1ccc(F)cc1Cl)N1C[C@H]2CC[C@@H](C1)N2c1cc(S(=O)(=O)N2CCC(c3ccccc3)CC2)cc2c1OCC2` [compound 055, (2-chloro-4-fluoro-phenyl)-[(1S,5R)-8-[5-[(4-phenyl-1-piperidyl)sulfonyl]-2,3-dihydrobenzofuran-7-yl]-3,8-diazabicyclo[3.2.1]octan-3-yl]methanone], the EC50 is under 1 µM. In the case of `COC(=O)c1cccc(C2CCN(S(=O)(=O)c3ccc(OC)c(N4[C@@H]5CC[C@H]4CN(C(=O)c4ccc(F)cc4Cl)C5)c3)CC2)c1` [compound 041, methyl 3-[1-[3-[(1S,5R)-3-(2-chloro-4-fluoro-benzoyl)-3,8-diazabicyclo[3.2.1]octan-8-yl]-4-methoxy-phenyl]sulfonyl-4-piperidyl]benzoate] it was under 1 µM. The same measure for `CC(C)(NS(=O)(=O)c1cc(Cl)c(O)c(N2[C@@H]3CC[C@H]2CN(C(=O)c2ccc(F)cc2Cl)C3)c1)C(F)(F)F` [compound 105, 3-chloro-5-[(1S,5R)-3-(2-chloro-4-fluoro-benzoyl)-3,8-diazabicyclo[3.2.1]octan-8-yl]-4-hydroxy-N-(2,2,2-trifluoro-1,1-dimethyl-ethyl)benzenesulfonamide]: under 1 µM; for `COc1ccc(S(=O)(=O)N2CCN(c3ccccc3)CC2)cc1N1[C@@H]2CC[C@H]1CN(C(=O)c1cc(F)c(F)cc1Cl)C2` [compound 051]: under 1 µM; for `COc1ccc(S(=O)(=O)N2CCN(CCc3ccc(F)cc3)CC2)cc1N1[C@@H]2CC[C@H]1CN(C(=O)c1ccc(F)cc1Cl)C2` [compound 046, (2-chloro-4-fluoro-phenyl)-[(1S,5R)-8-[5-[4-[2-(4-fluorophenyl)ethyl]piperazin-1-yl]sulfonyl-2-methoxy-phenyl]-3,8-diazabicyclo[3.2.1]octan-3-yl]methanone]: under 1 µM. The same measure for `O=C(c1ccc(F)cc1Cl)N1C[C@H]2CC[C@@H](C1)N2c1cc(S(=O)(=O)N2CCC(c3ccccc3)CC2)ccc1O` [compound 063, (2-chloro-4-fluoro-phenyl)-[(1S,5R)-8-[2-hydroxy-5-[(4-phenyl-1-piperidyl)sulfonyl]phenyl]-3,8-diazabicyclo[3.2.1]octan-3-yl]methanone]: under 1 µM; for `CC(C)(C)NS(=O)(=O)c1cc(Cl)c(OCCO)c(N2[C@@H]3CC[C@H]2CN(C(=O)c2ccc(F)cc2Cl)C3)c1` [compound 112]: under 1 µM; for `O=C(c1ccc(F)cc1Cl)N1C[C@H]2CC[C@@H](C1)N2c1cc(S(=O)(=O)N2CCC(c3ccccc3)CC2)ccc1Cl` [compound 066, (2-chloro-4-fluoro-phenyl)-[(1S,5R)-8-[2-chloro-5-[(4-phenyl-1-piperidyl)sulfonyl]phenyl]-3,8-diazabicyclo[3.2.1]octan-3-yl]methanone]: under 1 µM. The molecule `CCCN(C)S(=O)(=O)c1ccc(O)c(N2[C@@H]3CC[C@H]2CN(C(=O)c2ccc(F)cc2Cl)C3)c1` [compound 036, 3-[(1S,5R)-3-(2-chloro-4-fluoro-benzoyl)-3,8-diazabicyclo[3.2.1]octan-8-yl]-4-hydroxy-N-methyl-N-propyl-benzenesulfonamide] registered an EC50 of 1 to 10 µM.

For the molecule `CCCN(C)S(=O)(=O)c1ccc(C2CC2)c(N2[C@@H]3CC[C@H]2CN(C(=O)c2ccc(F)cc2Cl)C3)c1` [compound 079], the EC50 was under 1 µM. Take `Cc1c(O)cc(S(=O)(=O)N2CCC(c3ccccc3)CC2)cc1N1[C@@H]2CC[C@H]1CN(C(=O)c1ccc(F)cc1Cl)C2` [compound 124, (2-chloro-4-fluoro-phenyl)-[(1S,5R)-8-[3-hydroxy-2-methyl-5-[(4-phenyl-1-piperidyl)sulfonyl]phenyl]-3,8-diazabicyclo[3.2.1]octan-3-yl]methanone]: the EC50 is under 1 µM. The same measure for `Cc1cc(S(=O)(=O)NC(C)(C)C)cc(N2[C@@H]3CC[C@H]2CN(C(=O)c2ccc(F)cc2Cl)C3)c1O` [compound 093]: under 1 µM.
